Measured values: patent EP0423707A2, “Platinum complexes” (Bristol-Myers Squibb Company, priority 1989, dated 1991)

Columns and labels:
[1] = tested on: B16-F10 murine melanoma cells; experiment: In vitro cytotoxicity, crystal violet staining after 72 hours incubation; format: cell-based
Procedure: (§1) The cytotoxic activity of the platinum complexes were evaluated in vitro using B16-F10 murine melanoma cells and HCT-116 human colon carcinoma cells. The B16-F10 cell line was maintained cultured in Eagle's Minimum Essential Medium (MEM) with Earle's salts (Gibco; Grand Island, NY) enriched with 2 millimoles of L-glutamine, 2.06 millimoles of sodium pyruvate, insulin (0.26 units/ml), penicillin/streptomycin (10 units/milliliter and 10 micrograms/milliliter, respectively), MEM non-essential amino acids (0.6% Gibco; Grand Island, NY), and 10% fetal bovine serum (Hyclone; Logan, UT). The HCT-116 cells were grown in McCoy's 5A medium (modified, Gibco; Grand Island, NY) supplemented with 2 millimoles of L-glutamine, 0.12 millimoles of L-serine, 0.17 millimoles of asparagine, 1.5 millimoles of sodium pyruvate, MEM essential amino acids (0.67%, Gibco; Grand Island, NY), MEM vitamins (0.6%, Gibco; Grand Island, NY), fetal calf serum (10%, Hyclone; Logan, UT), and penicillin/streptomycin (10 units/milliliter and 10 micrograms/milliter, respectively). Both cell lines were incubated at 37°C in 5% CO₂/balance air high-humidity incubator.
(§2) Logarithmically growing cells were then harvested by mild trypsinization, and 4000 cells were added to each well of a 96-well microtiter plate (Costar; Cambridge, MA). The plates were incubated at 37°C in 5% CO₂ overnight to permit cell attachment to the plate. The cells were then treated with a platinum complex according to the present invention, cisplatin, or iproplatin and then incubated for 72 hours. After incubating, the plates were inverted and shaken to remove media, drug, and detached cells. Formalin (10%) in phosphate buffered saline was added and the cells fixed for 10 minutes. The fixative was then removed, the plates air dried, stained with 0.0075% crystal violet for 15 minutes, washed twice, and air dried. The stain is solubilized with 0.2 milliliters of 0.2 Molar AcOH/EtOH (1:1) and optical densities determined using a Dynatech MR600 microtiter plate reader (Dynatech; Chantilly, VA). IC50 values are calculated by linear regression analysis of absorption data.
(§3) For the above described in vitro cytotoxicity studies, the compounds are dissolved or suspended, depending on their solubility, in 0.9% Sodium Chloride or 10% ethanol in 0.9% Sodium Chloride. The compounds are prepared for in vivo treatment by dissolving or suspending in water (minimal amounts of Tween 80), 0.9% Sodium Chloride, or 10% ethanol in 0.9% Sodium Chloride. Olive oil or cotton seed oil are used for in vivo studies when the compounds are oil soluble compounds (see, for example, in Table 8, an oil soluble compound in olive oil, Example 9 (2-ethylhexanoate derivative), below).

[2] = tested on: HCT-116 human colon carcinoma cells; experiment: as above; format: cell-based; conditions: HCT-116 cells
Procedure: as §1, §2, §3

[3] = tested on: M5076 sarcoma; experiment: Activity against M5076 sarcoma, subcutaneous implant; format: in vivo, BDF1 mice; conditions: Days 5, 9, 13, and 17, at the dose producing the maximum effect; for MAXIMUM % T/C: median survival time vs controls; for MAXIMUM T-C: median time for tumors to reach 1 gram relative to controls
Procedure: Platinum complexes according to the present invention were additionally evaluated for further antitumor activity against M5076 sarcoma. BDF1 mice, 8 per group, were inoculated subcutaneously with a fragment of M5076 sarcoma.
Intraperitoneal or intravenous treatment with the complexes was initiated 5 days after implant and was continued on days 9, 13, and 17 for a total of 4 treatments. From 4 to 6 doses were tested for each compound under study.
A saline treated control group and cisplatin treated groups were included in each experiment. The mice were observed daily for survivors, and the experiments terminated after 75-80 days.
Antitumor activity was determined based on a) median survival time of the drug treated mice relative to that of the controls (percent T/C) and b) the median time for tumors to reach 1 gram in drug treated mice relative to the controls (T-C). A complex was considered active if it produced a T-C greater than or equal to 13 days.
as §3

[4] = tested on: L1210 murine leukemia; experiment: Activity against L1210 murine leukemia, intracerebral implanted tumor; format: in vivo, CDF1 mice; conditions: single intraperitoneal dose on Day 3, at the dose producing the maximum effect, median survival time vs saline controls
Procedure: (§4) The platinum complexes according to the present invention were tested for antitumor activity against L1210 murine leukemia. CDF1 mice weighing 20 grams were inoculated intraperitoneally or intracerebrally with 10⁶ or 10⁵ ascites cells of L1210 leukemia, respectively.
(§5) Drug administration was initiated the day following intra-peritoneal tumor implantation or 3 days following intracerebral implant. The complexes were administered at various dose levels by intraperitoneal injection. Groups of 4 to 6 mice were used for each dose level, and they were treated with a single dose of the complex on the treatment day. A group of 10 saline treated control mice were included in each experiment. Cisplatin and iproplatin treated groups were included as positive controls in each experiment.
(§6) The mice were weighed before treatment and again on day 5 or 6, and the average weight change was used as a measure of toxicity. The animals were observed daily for mortality, and the experiments terminated after 30 days. Antitumor activity was determined based on percent T/C, which is the ratio of the median survival time of the drug treated group to the median survival time of the saline treated control group times 100.
(§7) A complex was considered active if it produced a T/C greater than or equal to 125 percent. […]

[5] = tested on: L1210 murine leukemia; experiment: Activity against L1210 murine leukemia, intraperitoneal implanted tumor; format: in vivo, CDF1 mice; conditions: single intraperitoneal dose on Day 1, at the dose producing the maximum effect, median survival time vs saline controls
Procedure: as §4, §5, §6, §7

[6] = tested on: P388 murine leukemia; experiment: Activity against P388 murine leukemia, intravenous inoculation, oral treatment; format: in vivo, CDF1 mice; conditions: administered orally (by gavage) 1 time on Day 1; at the dose producing the maximum effect; median survival time vs saline controls
Procedure: The platinum complexes according to the present invention were tested for antitumor activity against P388 murine leukemia. CDF1 mice weighing 20 grams were inoculated intravenously with 10⁶ ascites cells of P388 leukemia.
Drug administration of the platinum complexes was initiated on the day following the intravenous tumor inoculation. The complexes were administered at various dosage levels by oral gavage. Groups of 6 mice were used for each dose level, and they were treated with a single dose of the complex on the treatment day. A group of 10 saline treated control mice were included in each experiment. Cisplatin treated groups were included as positive controls in each experiment.
as §6
A complex was considered active if it produced a T/C greater than or equal to 125 percent.
For the above described in vitro cytotoxicity studies, the compounds are dissolved or suspended, depending on their solubility, in 0.9% Sodium Chloride or 10% ethanol in 0.9% Sodium Chloride. […]

N.N.[Cl][Pt][Cl] [Cisplatin]
IC50 B16 [1]: 5.4-7.3 micrograms/milliter
IC50 HCT116 [2]: 4.2-4.5 micrograms/milliter
MAXIMUM % T/C ([3]; route ip): 126%
MAXIMUM T-C ([3]; route ip): 33 days
MAXIMUM % T/C ([3]; route iv): 114-126%
MAXIMUM T-C ([3]; route iv): 25 to 27.3 days
MAXIMUM % T/C [4]: 114%
MAXIMUM % T/C [5]: 143-207%
MAXIMUM % T/C [6]: 173%

Iproplatin
IC50 B16 [1]: 66.8-243 micrograms/milliter
IC50 HCT116 [2]: 20.2-31.2 micrograms/milliter
MAXIMUM % T/C ([3]; route ip): 160+^b %
MAXIMUM T-C ([3]; route ip): 34.5 days
MAXIMUM % T/C [4]: 157%
MAXIMUM % T/C [5]: 143-171%
